# Results taken from patent publication US11802133B2, “Heterocyclic compounds as monoacylglycerol lipase inhibitors” (Hoffmann-La Roche Inc., priority 2018, dated 2023).
# Target: MAGL (recombinant wild-type) (Homo sapiens (Human), UniProt Q99685)
# Experiment: 4-NPA assay: MAGL inhibitory activity by hydrolysis of 4-nitrophenylacetate (absorbance at 405 nm)
# Format: biochemical
# Conditions: measured in 4-NPA assay (footnote [a]); 1 nM MAGL, 300 μM 4-nitrophenylacetate
# Description: This assay is hereinafter abbreviated “4-NPA assay”.
# The plate was shaked for 1 min at 2000 rpm (Variomag Teleshake) and then incubated for 15 min at RT. […] The final concentrations in the assay were 1 nM MAGL and 300 μM 4-Nitrophenylacetate. […] A second measurement was then done after incubation for 80 min at RT. From the two measurements, the slope was calculated by subtracting the first from the second measurement.
# MAGL (recombinant wild-type), sequence (Q99685 whole entry, species assumed): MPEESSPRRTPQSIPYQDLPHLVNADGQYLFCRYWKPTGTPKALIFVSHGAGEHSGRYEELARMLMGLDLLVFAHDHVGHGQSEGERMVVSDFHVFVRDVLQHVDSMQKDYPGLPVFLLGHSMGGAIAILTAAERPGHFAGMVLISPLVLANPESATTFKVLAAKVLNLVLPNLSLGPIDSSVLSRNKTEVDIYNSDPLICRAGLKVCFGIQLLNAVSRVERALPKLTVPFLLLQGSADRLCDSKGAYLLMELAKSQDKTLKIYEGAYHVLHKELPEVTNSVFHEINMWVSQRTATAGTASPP
row,Structure (SMILES),IC50 [µM]
1,"CC1C(OCc2ccc(C(F)(F)F)cc2)CN1C(=O)N1CC[C@@H]2OCC(=O)N[C@@H]2C1 (single isomer, unassigned) [Example 103]",0.005
2,"CC1C(OCc2ccc(C(F)(F)F)cc2)CN1C(=O)N1CC[C@@H]2OCC(=O)N[C@@H]2C1 (single isomer, unassigned) [Example 104]",0.451
3,"O=C1CO[C@@H]2CCN(C(=O)N3CCC(Cn4cc(C(F)(F)F)cn4)CC3)C[C@@H]2N1 (stereo in doubt) [Example 26, (4aS,8aR)-6-(4-((4-(Trifluoromethyl)-1H-pyrazol-1-yl)methyl)piperidine-1-carbonyl)hexahydro-2H-pyrido[4,3-b][1,4]oxazin-3(4H)-one]",0.684
4,"CC(C)(C)c1csc(CC2CCN(C(=O)N3CC[C@@H]4OCC(=O)N[C@@H]4C3)CC2)n1 [Example 1, (+)-(4aR,8aS)-6-(4-((4-(tert-Butyl)thiazol-2-yl)methyl)piperidine-1-carbonyl)hexahydro-2H-pyrido[4,3-b][1,4]oxazin-3(4H)-one]",0.04
5,CC(C)(C)c1coc(CC2CCN(C(=O)N3CC[C@@H]4OCC(=O)N[C@@H]4C3)CC2)n1 [Example 2],0.046
6,CC(C)(C)c1coc(CC2CCN(C(=O)N3CC[C@@H]4OCC(=O)N[C@@H]4C3)CC2)n1 [Example 4],0.092
7,CC(C)(C)c1csc(CC2CCN(C(=O)N3CC[C@H]4OCC(=O)N[C@H]4C3)CC2)n1 [Example 5],1.3
8,O=C1CO[C@H]2CCN(C(=O)N3CCC(Cc4ccc(C(F)(F)F)cc4)CC3)C[C@H]2N1 [Example 8],0.013
9,"O=C1CO[C@H]2CCN(C(=O)N3CCC(Oc4ccc(C(F)(F)F)cc4)CC3)C[C@H]2N1 [Example 12, (+)- or (−)-(4aR,8aS)-6-(4-(4-(Trifluoromethyl)phenoxy)piperidine-1-carbonyl)hexahydro-2H-pyrido[4,3-b][1,4]oxazin-3(4H)-one]",0.077
10,O=C1CO[C@H]2CCN(C(=O)N3CCC(Oc4ccc(C(F)(F)F)cc4)CC3)C[C@H]2N1 [Example 13],0.087
11,O=C1CO[C@H]2CCN(C(=O)N3CCC(Cc4ccc(C(F)(F)F)cc4)CC3)C[C@@H]2N1 [Example 14],0.191
12,O=C1CO[C@H]2CCN(C(=O)N3CCC(Cc4nc5c(s4)CCC5)CC3)C[C@H]2N1 [Example 16],0.208
13,O=C1CO[C@H]2CCN(C(=O)N3CCC(Cc4ccc(C(F)(F)F)cc4)CC3)C[C@@H]2N1 [Example 17],0.268
14,O=C1CO[C@H]2CCN(C(=O)N3CCC(Cc4nc(-c5ccccc5)no4)CC3)C[C@H]2N1 [Example 18],0.892
15,O=C1CO[C@H]2CCN(C(=O)N3CCN(Cc4ccc(Cl)cc4)CC3)C[C@H]2N1 [Example 22],2.1

# The remaining lines, values ahead:
row,IC50 [µM],Structure (SMILES)
1,0.011,O=C1CO[C@H]2CCN(C(=O)N3CCC(COc4ccc(F)cc4Cl)CC3)C[C@H]2N1 [Example 7]
2,0.035,O=C1CO[C@H]2CCN(C(=O)N3CCC(COc4ccc(Cl)cc4)CC3)C[C@H]2N1 [Example 9]
3,0.039,O=C1CO[C@H]2CCN(C(=O)N3CCC(Cc4ccc(Cl)cc4)CC3)C[C@H]2N1 [Example 10]
4,0.19,O=C1CO[C@H]2CCN(C(=O)N3CCC(COc4ccccc4)CC3)C[C@H]2N1 [Example 15]
5,1.5,O=C1CO[C@@H]2CCN(C(=O)N3CCC(Cc4ccc(C(F)(F)F)cc4)CC3)C[C@H]2N1 [Example 19]
6,1.8,O=C1CO[C@@H]2CCN(C(=O)N3CCC(Cc4ccc(C(F)(F)F)cc4)CC3)C[C@@H]2N1 [Example 20]
7,0.856,O=C1CO[C@@H]2CCN(C(=O)N3CCC(COc4ccc(F)cc4Cl)CC3)C[C@@H]2N1 [Example 23]
8,0.004,O=C1CO[C@H]2CCN(C(=O)N3CCC(COc4ccc(F)cc4Cl)CC3)C[C@H]2N1 [Example 24]
